Results reported in patent US8859587B2, “(2E)-3-phenyl-N-[2,2,2-Trifluoro-1-[[8-quinolineamino)thiomethyl]amino]ethyl]-2-acrylamide and pharmaceutical uses thereof” (Chinese PLA General Hospital, priority 2010, dated 2014).
Like-named read-outs stand apart in the source and are kept apart here. Marks after values point to notes of the source that are not given here.

System: primary cardiac muscle cells
Type: cell-based, Wistar rats
Conditions: 48 h, MTT, normal cells
Procedure: Animal: newly born Wistar rats, rat age: within 24 h, male and female
The separation and culture of cardiomyocyte refer to the method of differential adhesion separation (Kreider, A. Messing, H. Doan, S. U. Kim, R. P. Lisak and D. E. Pleasure, Enrichment of Schwann cell cultures from neonatal rat sciatic nerve by differential adhesion, Brain Res 2 (1981), pp. 433-444.), Wistar neonate rats newly born within 24 h were used to obtain primary cardiac muscle cells.
The separated primary culture of cardiac muscle cells as obtained by the above method were inoculated in an amount of 10^4 cells per well to a 96-well plate, and the volume of each well was 100 μl (marginal wells were filled with sterile PBS). After being cultivated in 5% CO2 and 37° C. incubator for 4 d, they were added with the compound of Formula 1 at different concentrations (0.3 μM, 1 μM, 3 μM, 10 μM, 30 μM, 100 μM), 3 double-wells were set for each concentration, at the same time, zero setting wells (culture medium, MTT, DMSO), and control wells (culture medium, DMSO) were also set. After continuous inoculation for 48 h, each well was added with 20 μl of MTT solution (5 mg/ml, formulated with PBS (pH=7.4), i.e., 0.5% MTT), and the cultivation was continued for 4 h. After the end of cultivation, culture medium in wells was carefully sucked out. Each well was added with 150 μl of DMSO, shaken at a low speed in a shaking table for 10 min, so that the crystal was sufficiently dissolved. The optical density (OD) value of each well was measured at wavelength of 550 nm by enzyme-linked immunoassay instrument, and each well was repeatedly measured for 5 times and the results were recorded.

O=C(/C=C/c1ccccc1)NC(NC(=S)Nc1cccc2cccnc12)C(Cl)(Cl)Cl (stereo not drawn) [Compound of Formula I, (2E)-3-phenyl-N-[2,2,2-trichloro-1-[[(8-quinolylamino)thiomethyl]amino]ethyl]-2-acrylamide]
Cardiomyocyte survival rate (%) (0.3 μM): 98.8562 ± 6.7316^a %
Cardiomyocyte survival rate (%) (1 μM): 91.6667 ± 7.6257^a %
Cardiomyocyte survival rate (%) (3 μM): 94.5261 ± 3.7997^a %
Cardiomyocyte survival rate (%) (10 μM): 102.7778 ± 3.0645^a %
Cardiomyocyte survival rate (%) (30 μM): 105.8007 ± 3.2639^a %
Cardiomyocyte survival rate (%) (100 μM): 104.2484 ± 7.3625^a %
